Results taken from patent publication US20030162687A1, “Surfactants” (AJINOMOTO CO. INC., priority 2002, published 2003).

What was measured:
[1] = Particle diameter distribution by sieve classification; format: physicochemical
Method: Content of the 280 mesh pass particles can generally be measured according to JIS Z8815 “General procedures for sieve analysis test”. For example, the content can be determined by sieving particles through a sieve having a mesh size of 280 (53 μm) with vibration using a vibrator, and measuring weight of particles passed through the sieve. The measurement can be carried out, for example, after vibration for 5 minutes with an amplitude of 2.0 mm, and a sieve according to the JIS standard (JIS Z 8801-1) can be used as the sieve. A specific example of the sieving method is given in the examples of the specification, and accordingly, those skilled in the art can measure a content of 280 mesh pass particles by referring to the aforementioned JIS general procedures and descriptions of the examples of the specification.
In the following example, sieve classification was carried out by vibrating a sieve for 5 minutes at an amplitude of 2.0 mm using a vibrator produced by Rctsch. Powdery samples were prepared in a conventional manner by using a spray dryer with sodium N-lauroyl-L-glutamate, sodium N-myristoyl-L-glutamate, sodium N-palmoyl-L-glutamate, and sodium N-cocoyl glycinate as salts of N-long-chain acyl amino acids. Drying was performed under the following conditions.
From the samples dried by the spray drier, 280 mesh pass cut samples, 200 mesh pass cut samples, and 140 mesh pass cut samples were prepared by using sieves. […] Samples that were not subjected to sieve classification were used as controls.

[2] = Flowability by powder tester Model PT-N, Carr's flowability index method; format: physicochemical
Method: As for evaluation of flowability, parameters of angle of repose, degree of compaction, spatula angle, and degree of aggregation were measured by using a powder tester Model PT-N produced by HOSOKAWA MICRON CORP. based on the method for evaluating Carr's flowability index.

[3] = 140 mesh pass cut sample (106 μm)
[4] = 200 mesh pass cut sample (75 μm)
[5] = 280 mesh pass cut sample (53 μm)
[6] = control, not subjected to sieve classification

Particle diameter distribution 53˜75 μm [1, 3] | Particle diameter distribution 75˜106 μm [1, 3] | Particle diameter distribution 106˜μm [1, 3] | Particle diameter distribution ˜53 μm [1, 3] | Particle diameter distribution 53˜75 μm [1, 4] | Particle diameter distribution 75˜106 μm [1, 4] | Particle diameter distribution 106˜μm [1, 4] | Particle diameter distribution ˜53 μm [1, 4] | Particle diameter distribution 53˜75 μm [1, 5] | Particle diameter distribution 75˜106 μm [1, 5] | Particle diameter distribution 106˜μm [1, 5] | Particle diameter distribution ˜53 μm [1, 5] | Particle diameter distribution 53˜75 μm [1, 6] | Particle diameter distribution 75˜106 μm [1, 6] | Particle diameter distribution 106˜μm [1, 6] | Particle diameter distribution ˜53 μm [1, 6] | Flowability: Angle of repose [2, 3] | Flowability: Degree of aggregation [2, 3] | Flowability: Degree of compaction [2, 3] | Flowability: Spatula angle [2, 3] | Compound | further results
0% | 0% | 100% | 0% | 0% | 9.6% | 90.4% | 0% | 8.3% | 8.8% | 82.9% | 0% | 7.9% | 8.4% | 79.0% | 4.7% | 29.1 ° | 34.6% | 13.7% | 29.5 ° | CCCCCCCCCCCC(=O)N[C@@H](CCC(=O)[O-])C(=O)[O-].[Na+].[Na+] [Na lauroylglutamate, sodium N-lauroyl-L-glutamate] | Flowability index [2, 3]: 76.0; Flowability index [2, 4]: 77.0; Flowability: Angle of repose [2, 4]: 30.6 °; Flowability: Degree of aggregation [2, 4]: 15.7%; Flowability: Degree of compaction [2, 4]: 12.7%; Flowability: Spatula angle [2, 4]: 31.7 °; Flowability index [2, 5]: 78.0; Flowability: Angle of repose [2, 5]: 28.6 °; Flowability: Degree of aggregation [2, 5]: 12.5%; Flowability: Degree of compaction [2, 5]: 14.0%; Flowability: Spatula angle [2, 5]: 36.7 °; Flowability index [2, 6]: 67.0; Flowability: Angle of repose [2, 6]: 33.0 °; Flowability: Degree of aggregation [2, 6]: 15.1%; Flowability: Degree of compaction [2, 6]: 18.3%; Flowability: Spatula angle [2, 6]: 46.7 °
0% | 0% | 100% | 0% | 0% | 9.2% | 90.8% | 0% | 6.5% | 15.3% | 78.2% | 0% | 4.4% | 17.1% | 73.0% | 5.5% | 28.6 ° | 27.9% | 15.6% | 43.4 ° | sodium N-cocoyl glycinate [Na cocoylglycinate] | Flowability: Angle of repose [2, 4]: 31.0 °; Flowability: Degree of aggregation [2, 4]: 28.1%; Flowability: Degree of compaction [2, 4]: 15.1%; Flowability: Spatula angle [2, 4]: 50.0 °; Flowability: Angle of repose [2, 5]: 33.0 °; Flowability: Degree of aggregation [2, 5]: 28.4%; Flowability: Degree of compaction [2, 5]: 14.5%; Flowability: Spatula angle [2, 5]: 56.0 °; Flowability: Angle of repose [2, 6]: 36.7 °; Flowability: Degree of aggregation [2, 6]: 32.8%; Flowability: Degree of compaction [2, 6]: 16.4%; Flowability: Spatula angle [2, 6]: 62.0 °
0% | 0% | 100% | 0% | 0% | 15.1% | 84.9% | 0% | 6.5% | 14.1% | 79.4% | 0% | 6.0% | 13.0% | 73.3% | 7.7% | 30.8 ° | 13.5% | 11.3% | 34.8 ° | CCCCCCCCCCCCCC(=O)N[C@@H](CCC(=O)[O-])C(=O)[O-].[Na+].[Na+] [Na myristoylglutamate, sodium N-myristoyl-L-glutamate] | Flowability: Angle of repose [2, 4]: 30.1 °; Flowability: Degree of aggregation [2, 4]: 19.9%; Flowability: Degree of compaction [2, 4]: 11.1%; Flowability: Spatula angle [2, 4]: 37.0 °; Flowability: Angle of repose [2, 5]: 31.1 °; Flowability: Degree of aggregation [2, 5]: 15.9%; Flowability: Degree of compaction [2, 5]: 12.8%; Flowability: Spatula angle [2, 5]: 38.8 °; Flowability: Angle of repose [2, 6]: 26.6 °; Flowability: Degree of aggregation [2, 6]: 12.3%; Flowability: Degree of compaction [2, 6]: 16.5%; Flowability: Spatula angle [2, 6]: 49.3 °
0% | 0% | 100% | 0% | 0% | 14.4% | 81.3% | 0% | 4.8% | 17.8% | 77.4% | 0% | 4.5% | 16.9% | 73.3% | 5.3% | 32.0 ° | 26.4% | 10.2% | 49.2 ° | CCCCCCCCCCCCCCCC(=O)N[C@@H](CCC(=O)[O-])C(=O)[O-].[Na+].[Na+] [Na palmoylglutamate, sodium N-palmoyl-L-glutamate] | Flowability: Angle of repose [2, 4]: 37.4 °; Flowability: Degree of aggregation [2, 4]: 20.6%; Flowability: Degree of compaction [2, 4]: 12.4%; Flowability: Spatula angle [2, 4]: 53.4 °; Flowability: Angle of repose [2, 5]: 35.5 °; Flowability: Degree of aggregation [2, 5]: 21.5%; Flowability: Degree of compaction [2, 5]: 12.4%; Flowability: Spatula angle [2, 5]: 52.4 °; Flowability: Angle of repose [2, 6]: 39.3 °; Flowability: Degree of aggregation [2, 6]: 17.6%; Flowability: Degree of compaction [2, 6]: 15.6%; Flowability: Spatula angle [2, 6]: 59.0 °
